One data set relates to mouse. The data set is described as follows: acute IV toxicity in the mouse (lowest lethal dose). Type of data set: in vivo.
Data set [1] is described as follows: pH value of a 1% solution in water. The format is physicochemical. The source says:
The molecular formulae for iclaprim and iclaprim mesylate are […] (base) and C20H26N4O6S (mesylate), and their relative molecular masses are 354.41 (base) or 450.52 (mesylate). […] One skilled in the art can readily obtain iclaprim or iclaprim mesylate, and synthesis of these compounds is described in U.S. Pat. No. 5,773,446, the entire disclosure of which is herein incorporated by reference.

Another data set has as its system male and female rats. The settings on record: both, rat, in vivo, 4 weeks. The method, then: A repeated-dose, 4-week toxicity study was conducted in male and female rats, where single, daily IV bolus doses up to 60 mg/kg were given. […] A 28-day toxicity study was also conducted in male and female marmosets, where iclaprim mesylate was infused intravenously over a 20-minute interval.

The next data set has as its system female mini-pigs. The settings on record: minipig, in vivo.
The next data set concerns E. faecalis ATCC 33186. Put plainly: MIC with/without bovine pulmonary surfactant. Type of data set: cell-based. The settings on record: Enterococcus faecalis, ATCC33186, 2.5% v/v BPS, read-out: MIC, Resazurin: +BPS. On the procedure:
(§1) Antibacterial susceptibility testing was measured by JMI Labs (North Liberty, Iowa, USA). […] These clinical isolates were collected from US (n=4), Mexico (n=2), and Italy (n=1). Susceptibility testing was performed by broth microdilution in accordance with the Clinical and Laboratory and Standards Institute (CLSI) guidelines M07-A10 (2015) and the standard operating procedures at JMI laboratories. Minimum inhibitory concentrations (MICS) were based on CLSI criteria (2015). There are no published breakpoints for iclaprim. E. coli, K. pneumoniae, M. catarrhalis, E. faecalis, and S. aureus were tested in cation-adjusted Mueller-Hinton broth (CA-MHB). S. pneumoniae were tested in CA-MHB supplemented with 2.5-5% lysed horse blood, and H. influenza were tested in Haemophilus test medium. Quality control and interpretation of results were performed in accordance with CLSI M100-S26 (2016) methods. QC ranges for iclaprim were those approved by CLSI and published in M100-S26 (2016). Iclaprim and comparator antibiotic MIC results were within the CLSI published ranges against E. coli ATCC 25922, E. faecalis ATCC 29212, E. faecalis ATCC 33186, H. influenzae ATCC 49247, K. pneumoniae ATCC 700603 (ESBL phenotype), S. aureus ATCC 29213, and S. pneumoniae ATCC 49619. Isolates were tested with MIC panels (ThermoFisher Scientific, Cleveland, Ohio, USA) of comparator antibiotics (daptomycin and levofloxacin).
(§2) Because bovine pulmonary surfactant can introduce cloudiness to the MIC testing media, antimicrobial growth inhibition was also evaluated using the colorimetric metabolic indicator resazurin (Camlab Ltd., Cambridge, UK). […] S. pneumoniae panels were omitted from resazurin analysis because the color change was obscured by the lysed horse blood present in the test medium. Growth inhibition was then evaluated as a visible color change from blue (no growth) to pink (robust growth) and recorded as a MIC1z value.
(§3) The MICs of iclaprim, levofloxacin, and daptomycin were determined against Gram-positive and Gram-negative isolates.
(§4) A new vial of bovine pulmonary surfactant (BPS; Survanta®; Abbott Laboratories, Columbus, Ohio) was utilized for each independent experiment. Each vial was mixed thoroughly and a 100 μL aliquot was spread on an agar plate, which was incubated overnight to confirm sterility. […] The concentration of surfactant was expressed in terms of percent volume of Survanta® suspension, which consisted of phospholipid (25 mg/mL) and surfactant proteins (<1 mg/mL) in 0.9% sodium chloride solution (Goerke, 1998). MICs of daptomycin were determined in CAMHB with the Ca^2+ content adjusted to 50 mg/L.
Background: Alamar Blue is a resazurin reagent that responds to reducing activity.

The next data set concerns E. coli ATCC 25922. Put plainly: MIC with/without bovine pulmonary surfactant. Type of data set: cell-based. The settings on record: Escherichia coli. The method, then: as §1, §2, §3, §4
The subject of another data set is S. aureus ATCC 29213. Put plainly: MIC with/without bovine pulmonary surfactant. Type of data set: cell-based. The settings on record: Staphylococcus aureus. On the procedure:
as §1, §2, §3, §4

Data set [2] relates to S. aureus Clinical Isolate 825189. Put plainly: MIC with/without bovine pulmonary surfactant. The format is cell-based. The settings on record: Staphylococcus aureus. The method, then:
as §1, §2, §3, §4

In data set [3] the test system is M. catarrhalis Clinical Isolate 893806. Put plainly: MIC with/without bovine pulmonary surfactant. The format is cell-based. The settings on record: Moraxella catarrhalis, 2.5% v/v BPS, read-out: MIC, Resazurin: +BPS. The method, then:
as §1, §2, §3, §4

The test system of data set [4] is M. catarrhalis Clinical Isolate 893807. The data set is described as follows: MIC with/without bovine pulmonary surfactant. The note with it: Moraxella catarrhalis, 2.5% v/v BPS, read-out: MIC, Resazurin: +BPS. The format is cell-based. On the procedure:
as §1, §2, §3, §4

The subject of a further data set is E. faecalis ATCC 29212. The data set is described as follows: MIC with/without bovine pulmonary surfactant. The format is cell-based. The settings on record: Enterococcus faecalis, ATCC29212, 2.5% v/v BPS, read-out: MIC, Resazurin: +BPS. On the procedure: as §1, §2, §3, §4
In the next data set the test system is S. aureus strain AH1252. The data set is described as follows: neutropenic rat lung infection model. Type of data set: in vivo, Staphylococcus aureus. The method, then:
S. aureus strain AH1252, a thymidine knockout of the MRSA wild type AW6 strain, was utilized for this study. The bacterial strain was diluted in a 2% alginate buffer, which was added dropwise in a ratio of 1:5 into […] to form alginate beads. The alginate beads reduce the efficacy of bacterial clearance similar to that seen in the cystic fibrosis population. A 5.25×10^4 bacterial inoculum was administered to groups of 9 rats, intratracheally, with prepared alginate bacteria suspensions, under isoflurane anesthesia. […] Twelve hours after the last treatment, rats were euthanized and lungs collected for CFU determination.

For data set [5], the system named is nosocomial pneumonia suspected or confirmed to be caused by Gram-positive pathogens. The data set is described as follows: Phase 2 study in nosocomial pneumonia, iclaprim versus vancomycin. Type of data set: in vivo, human. From the text:
This MIC effect of surfactant on daptomycin activity has been reported to be mediated by binding of surfactant components to specific structures present on antibiotics, such as the lipophilic side-chain of daptomycin (Silverman et al., 2005). […] Collectively, the current in vitro study and a previous Phase 2 study support that iclaprim could be a potential treatment for pneumonia, including nosocomial pneumonia caused by susceptible and multidrug resistant Gram-positive bacteria.

Where [6] appears, read: ATCC29213, 2.5% v/v BPS, read-out: MIC, Resazurin: +BPS.
[7] abbreviates: ATCC29213, no BPS, read-out: MIC, CLSI.
The mark [8] stands for this setting: ATCC29213, no BPS, read-out: MIC, Resazurin.
Setting [9] is: 2.5% v/v BPS, read-out: MIC, Resazurin: +BPS.
Setting [10] is: no BPS, read-out: MIC, Resazurin.

In brackets after ≈: the same amount, converted by molar mass. Structures can show the parent of a compound that is named as a salt. Where two headings read alike, the source gives them in different places.

The term MIC denotes the lowest concentration that inhibits growth of the organism.

As to `COc1cc(Cc2cnc(N)nc2N)c2c(c1OC)OC(C1CC1)C=C2` (racemic) [iclaprim mesylate, 5-[(2RS)-2-cyclopropyl-7,8-dimethoxy-2Hchromen-5-ylmethyl] pyrimidine-2,4-diamine methanesulfonate], in the data set on mouse, the “HED of lowest lethal IV dose” value came out at 6.1 mg/kg and the “lowest lethal IV dose” value is on record as 75 mg/kg. In [1], this compound yielded a pH value of 4.2. In the data set on male and female rats, the “HED of NOAEL” value was 3.9 mg/kg/day and the “dosage with histopathological changes at the injection sites” value was ≥ 10 mg/kg/day. Further, in the data set on female mini-pigs, the “HED of maximum tolerated single IV dose” value is given as 14.6 mg/kg and the “maximum tolerated single IV dose” value is recorded as 20 mg/kg.
Consider `C[C@H]1COc2c(N3CCN(C)CC3)c(F)cc3c(=O)c(C(=O)O)cn1c23` [levofloxacin], for which the MIC in the data set on E. faecalis ATCC 33186 turned out to be 2 µg/mL (≈ 5.53 µM); in the data set with E. coli ATCC 25922 (ATCC25922, 2.5% v/v BPS, read-out: MIC, CLSI: +BPS), 0.03 µg/mL (≈ 0.083 µM); in the data set on E. coli ATCC 25922 (ATCC25922, 2.5% v/v BPS, read-out: MIC, Resazurin: +BPS) it was 0.03 µg/mL (≈ 0.083 µM); with E. coli ATCC 25922 (ATCC25922, no BPS, read-out: MIC, CLSI), 0.015 µg/mL (≈ 0.0415 µM); in the data set on E. coli ATCC 25922 (ATCC25922, no BPS, read-out: MIC, Resazurin), 0.015 µg/mL (≈ 0.0415 µM); with S. aureus ATCC 29213 (ATCC29213, 2.5% v/v BPS, read-out: MIC, CLSI: +BPS) it was 0.12 µg/mL (≈ 0.332 µM). Besides, the MIC with S. aureus ATCC 29213 (setting [6]) was 0.12 µg/mL (≈ 0.332 µM); with S. aureus ATCC 29213 (setting [7]), 0.25 µg/mL (≈ 0.692 µM); in the data set with S. aureus ATCC 29213 (setting [8]), 0.25 µg/mL (≈ 0.692 µM); in data set [2] (2.5% v/v BPS, read-out: MIC, CLSI: +BPS) it was 0.25 µg/mL (≈ 0.692 µM); in [2] (setting [9]) it was 0.25 µg/mL (≈ 0.692 µM); in [2] (no BPS, read-out: MIC, CLSI), 0.25 µg/mL (≈ 0.692 µM). Moreover, the MIC in data set [2] (setting [10]) was found to be 0.25 µg/mL (≈ 0.692 µM).
On to `CCCCCCCCCC(=O)N[C@@H](Cc1c[nH]c2ccccc12)C(=O)N[C@H](CC(N)=O)C(=O)N[C@@H](CC(=O)O)C(=O)N[C@@H]1C(=O)NCC(=O)N[C@@H](CCCN)C(=O)N[C@@H](CC(=O)O)C(=O)N[C@H](C)C(=O)N[C@@H](CC(=O)O)C(=O)NCC(=O)N[C@H](CO)C(=O)N[C@@H]([C@H](C)CC(=O)O)C(=O)N[C@@H](CC(=O)c2ccccc2N)C(=O)O[C@@H]1C` [daptomycin], for which the MIC in the data set on E. faecalis ATCC 33186 was > 16 µg/mL; in [3], > 16 µg/mL; with S. aureus ATCC 29213 (setting [6]) it was > 16 µg/mL; in the data set with S. aureus ATCC 29213 (setting [7]), 0.5 µg/mL (≈ 0.309 µM); with S. aureus ATCC 29213 (setting [8]), 0.5 µg/mL (≈ 0.309 µM); in data set [4] it was > 16 µg/mL. Besides, the MIC is > 16 µg/mL in data set [2] (setting [9]), 0.25 µg/mL (≈ 0.154 µM) in data set [2] (setting [10]) and > 16 µg/mL with E. faecalis ATCC 29212.
For the compound `CN[C@H](CC(C)C)C(=O)N[C@H]1C(=O)N[C@@H](CC(N)=O)C(=O)N[C@H]2C(=O)N[C@H]3C(=O)N[C@H](C(=O)N[C@H](C(=O)O)c4cc(O)cc(O)c4-c4cc3ccc4O)[C@H](O)c3ccc(c(Cl)c3)Oc3cc2cc(c3O[C@@H]2O[C@H](CO)[C@@H](O)[C@H](O)[C@H]2O[C@H]2C[C@](C)(N)[C@H](O)[C@H](C)O2)Oc2ccc(cc2Cl)[C@H]1O` [Vancomycin, vancomycin, reference compound], in the data set with S. aureus strain AH1252 (50 mg/kg SC/BID), the “72 hour lungs log10CFU/Lung (CFU/gram of lung)” value is reported as 5.30, the “Change in CFUs from 2 hr. infection controls” value worked out at 2.18 log 10 CFU and the “Change in CFUs from 72 hr. infection controls” value is on record as −3.38 log 10 CFU. The “Survival >60 hrs” value with S. aureus strain AH1252 (50 mg/kg SC/BID (100 mg/kg/day) 3 days) was 8/9. In addition, the “CFU reduction from the 72 hour infection controls” value in the data set with S. aureus strain AH1252 (vancomycin 50 mg/kg SC/BID) was 3.38 log 10 CFU. In data set [5] (vancomycin 1 g IV q12h, test of cure visit (12 of 23)), the “cure rate, intent-to-treat population” value stood at 52.2%. Also, the “death rate within 28 days of the start of treatment” value in data set [5] (vancomycin (5 of 23)) came out at 21.7%.

Source of the values: US20190117653A1, “SYSTEMS AND METHODS FOR TREATING BACTERIAL INFECTION” (priority 2016, published 2019).
